Test results taken from patent US20080227222A1, “Method for the detection of target molecules by fluorescence polarization using peptide mimics” (priority 2007, published 2008).

Legend:
[1] = test system: anti-cortisol antibody (ACA); experiment: Competition ELISA: increasing cortisol against plate-coated phagotope for anti-cortisol antibody; type: binding; conditions: increasing amounts of cortisol, constant phage, FIG. 3
Protocol: Plates were coated with phagotopes and blocked as for the direct ELISA. […] Increasing amounts of cortisol was then added to 100 μl of specific antibody in 1% PBS-polyoxyethylene (20) sorbitan monolaurate. 100 μl replicates (4-6) of antibody/cortisol inhibitor was then left overnight.
The plates were washed and developed as for the direct ELISA. The results of these studies are illustrated in FIG. 3.

[2] = test system: anti-cortisol antibody (ACA); experiment: ELISA binding of phagotopes to anti-cortisol antibody (biopanning screen); conditions: phagotope expressing peptide, FIG. 2
Protocol: Identification of reactive phagotopes was conducted by either direct, where the phagotopes are coated directly to the plate, or capture ELISA, were the phagotopes are tethered to the plate via the selection antibody. The two ELISA methods were employed because direct ELISA identifies highly reactive phagotopes that are likely to contain a strong motif, whereas the capture ELISA is more sensitive, therefore also selecting for phagotopes involving only weak interactions. For the direct ELISA, phage preparations were diluted in sterile PBS and duplicate samples of 100 μl/well were added to a 96-well microtitre plate. Plates were left overnight at 4° C., blocked for 2 hours at room temperature with 1% skimmed milk powder and 0.05% Tween 20 in PBS ph 7.4 and washed three times in Tris-buffered saline, pH 7.4, containing 0.05% polyoxyethylene (20) sorbitan monolaurate (TWEEN 20™). 100 μl of specific antibody diluted to 1 μg/ml in 1% PBS-polyoxyethylene (20) sorbitan monolaurate were added and left overnight. […] Absorbances were read at 415 nm after 30 minutes and 60 minutes. […]

[3] = test system: anti-gamma-interferon antibody; experiment: Competition ELISA: increasing gamma-interferon against constant phage containing peptide mimic; type: binding; conditions: constant phage containing the mimic, detected with anti-phage antibody
Protocol: In order to identify peptide mimics, the procedure for described in Example 1 was followed. FA42™ anti-Gamma-interferon monoclonal antibody (Cellestis, Inc, Valencia, Calif.) was used in the screening of peptide mimics.
Identification of epitope sites that the peptides represented were then determined by comparing the peptide sequences with the known γ-interferon sequence. The identified peptides were then evaluated by the ability of gamma-interferon to inhibit binding of anti-γ-interferon antibody in ELISA. The results of this study is illustrated in FIG. 3 for peptide IFN-28. […] Phage binding was identified, in this study, using a specific anti-phage antibody.

[4] = test system: anti-γ-interferon antibody (FA42); experiment: Competition of fluorescently tagged peptides with IFN-41 expressing phage for binding to FA42; conditions: fluorescently tagged peptide against phage
Protocol: Further analysis of the peptide mimics sought to ascertain whether these peptides operated in the same manner as they do when expressed on the surface of the phage. In order to ascertain if these peptides operated in the same manner as they do when expressed on the surface of the phage, a competition assay was performed. In this assay, the newly created peptides were used to compete with the peptides on the surface of the phage for binding to FA42.
A gradient of inhibition of IFN-41 expressing phage binding by the two peptides is shown. The control peptide (ACA-20) is a mimic of cortisol. […] Additionally, FIG. 5 illustrates gradient inhibition of IFN-41 and IFN-19 using anti-gamma-interferon antibody.

competition with IFN-41 expressing phage for binding to anti-γ-interferon antibody [4] | Substance | competition by cortisol for antibody binding [1] | anti-cortisol antibody binding [2] | further results
 | ACA 20 (1): phagotope expressing peptide with high anti-cortisol antibody binding; probably clone of ACA-20 (YFTPVFINPTQV) | overlapping, dose-response competitive binding curves | comparatively high anti-cortisol antibody binding | 
 | ACA 20 (2): phagotope expressing peptide with high anti-cortisol antibody binding; probably clone of ACA-20 (YFTPVFINPTQV) | overlapping, dose-response competitive binding curves | comparatively high anti-cortisol antibody binding | 
 | SQYENNH (CSQYENNHC; listed as Homo sapiens) [IFN-28] |  |  | competition for binding to anti-gamma-interferon antibody [3]: graded competition
competed | TQYEQHY (CTQYEQHYC; listed as Homo sapiens) [IFN-41] |  |  | 
competed | TQYSQQM (CSQYSQLYC) [IFN-19] |  |  | 
did not compete | YFTPVFINPTQV (listed as Homo sapiens) [ACA-20, control peptide in the gamma-interferon assay] |  |  | 
